In ChEMBL document CHEMBL1671771, “Bismuth heterocycles based on a diphenyl sulfone scaffold: synthesis and substituent effect on the antifungal activity against Saccharomyces cerevisiae” (Eur J Med Chem, 2011):

What follows are substances tested on Saccharomyces cerevisiae (assay: Antifungal activity against Saccharomyces cerevisiae W303-1A at 30 mM after 48 hrs).
Type: functional, organism-based

Substance | inhibition zone (IZ) [mm]
10-(4-Dimethylaminobenzoyloxy)phenothiabismine 5,5-dioxide | 13
10-Chloro-2-phenylphenothiabismine 5,5-dioxide | 0
10-Chloro-2-trifluoromethylphenothiabismine 5,5-dioxide | 11
10-Chloro-2-methylphenothiabismine 5,5-dioxide | 14
10-(N,N-Diethyldithiocarbamoyl)phenothiabismine 5,5-dioxide | 0
4,10-Dichlorophenothiabismine 5,5-dioxide | 10
1,10-Dichlorophenothiabismine 5,5-dioxide | 13
10-Chloro-2-fluorophenothiabismine 5,5-dioxide | 17
10-Chloro-2-tert-butylphenothiabismine 5,5-dioxide | 0
tert-butyl-[2-[tert-butyl(dimethyl)silyl]oxy-10-chloro-5,5-dioxo-benzo[b][1,4]benzothiabismin-8-yl]oxy-dimethyl-silane | 0
2,10-Dichlorophenothiabismine 5,5-dioxide | 13
10-chlorobenzo[b][1,4]benzothiabismine 5,5-dioxide | 18
10-(4-Nitrobenzoyloxy)phenothiabismine 5,5-dioxide | 17
10-Chloro-2-methoxyphenothiabismine 5,5-dioxide | 11
10-Chloro-2-dimethylaminophenothiabismine 5,5-dioxide | 7
10-(Pyrrolidinedithiocarbamoyl)phenothiabismine 5,5-dioxide | 0
2,8-Dihydroxy-10-chlorophenothiabismine 5,5-dioxide | 8
10-Chloro-3-methylphenothiabismine 5,5-dioxide | 8
